Experimental data as given in patent US20120324604A1, “PESTICIDAL MIXTURES CONTAINING ISOXAZOLINE DERIVATIVES AND A FUNGICIDE” (priority 2010, published 2012).
Where “and” joins values, the source holds several entries; their conditions need not be identical. Identical values can stand only once.

How the values were obtained:
Type in all cases: cell-based
Pythium ultimum = Pythium ultimum (Damping Off) growth inhibition, microtiter plate, photometric
Method: Pythium ultimum (Damping Off):
Mycelial fragments of the fungus, prepared from a fresh liquid culture, were directly mixed into nutrient broth (potato dextrose broth). After placing a (DMSO) solution of the test compounds into a microtiter plate (96-well format) the nutrient broth containing the fungal spores was added.

Rhizoctonia solani = Rhizoctonia solani (Foot Rot, Damping-Off) growth inhibition, microtiter plate, photometric
Method: Rhizoctonia solani (Foot Rot, Damping-Off):
Mycelial fragments of the fungus from cryogenic storage were directly mixed into nutrient broth (potato dextrose broth). After placing a (DMSO) solution of the test compounds into a microtiter plate (96-well format) the nutrient broth containing the fungal spores was added.

Gaeumannomyces graminis = Gaeumannomyces graminis growth inhibition, microtiter plate, photometric
Method: Mycelial fragments of the fungus from cryogenic storage were directly mixed into nutrient broth (potato dextrose broth). After placing a (DMSO) solution of the test compounds into a microliter plate (96-well format) the nutrient broth containing the fungal spores was added.

[1] = test system: Glomerella lagenarium (syn. Colletotrichum lagenarium); experiment: Glomerella lagenarium (Anthracnose of Cucurbits) growth inhibition, microtiter plate, photometric; conditions: alone
Method: Glomerella lagenarium (syn. Colletotrichum lagenarium), Anthracnose of Cucurbits:
(§1) Conidia of the fungus from cryogenic storage were directly mixed into nutrient broth (potato dextrose broth). After placing a (DMSO) solution of the test compounds into a microtiter plate (96-well format) the nutrient broth containing the fungal spores was added.

Septoria tritici = Septoria tritici (Leaf Blotch) growth inhibition, microtiter plate, photometric
Method: Septoria tritici (Leaf Blotch):
as §1

[2] = test system: Mycosphaerella arachidis (syn. Cercospora arachidicola); experiment: Mycosphaerella arachidis (Brown Leaf Spot of Groundnut) growth inhibition, microtiter plate, photometric; conditions: alone
Method: Mycosphaerella arachidis (syn. Cercospora arachidicola), Brown Leaf Spot of Groundnut (Peanut):
as §1

Fusarium culmorum = Fusarium culmorum (Root Rot) growth inhibition, microtiter plate, photometric
Method: Fusarium culmorum (Root Rot):
as §1

[3] = single compound at 0.078125 ppm AI
[4] = single compound at 0.15625 ppm AI
[5] = single compound at 0.3125 ppm AI
[6] = single compound at 0.625 ppm AI
[7] = single compound at 0.125 ppm AI
[8] = single compound at 0.0625 ppm AI

Cc1cc(C2=NOC(c3cc(Cl)cc(Cl)c3)(C(F)(F)F)C2)ccc1C(=O)NC1C[S+]([O-])C1 (stereo not drawn) [A6]
0%: AVERAGE DEAD IN % (Pythium ultimum; [3]) | AVERAGE DEAD IN % (Pythium ultimum; [4]) | AVERAGE DEAD IN % (Pythium ultimum; [5]) | AVERAGE DEAD IN % (Pythium ultimum; [6]) | AVERAGE DEAD IN % (Pythium ultimum; single compound at 1.25 ppm AI) | AVERAGE DEAD IN % (Pythium ultimum; single compound at 2.5 ppm AI) | AVERAGE DEAD IN % (Pythium ultimum; single compound at 5 ppm AI) | AVERAGE DEAD IN % (Pythium ultimum; single compound at 10 ppm AI) | AVERAGE DEAD IN % (Pythium ultimum; single compound at 20 ppm AI) | AVERAGE DEAD IN % (Rhizoctonia solani; applied alone, 0.0390625 ppm AI) | AVERAGE DEAD IN % (Rhizoctonia solani; applied alone, 0.078125 ppm AI) | AVERAGE DEAD IN % (Rhizoctonia solani; applied alone, 0.15625 ppm AI) | AVERAGE DEAD IN % (Rhizoctonia solani; applied alone, 0.3125 ppm AI) | AVERAGE DEAD IN % (Rhizoctonia solani; applied alone, 0.625 ppm AI) | AVERAGE DEAD IN % (Rhizoctonia solani; applied alone, 1.25 ppm AI) | AVERAGE DEAD IN % (Rhizoctonia solani; applied alone, 2.5 ppm AI) | AVERAGE DEAD IN % (Rhizoctonia solani; applied alone, 5 ppm AI) | AVERAGE DEAD IN % (Rhizoctonia solani; applied alone, 10 ppm AI) | AVERAGE DEAD IN % (Rhizoctonia solani; applied alone, 20 ppm AI) | AVERAGE DEAD IN % (Gaeumannomyces graminis; single compound at 0.0390625 ppm AI) | AVERAGE DEAD IN % (Gaeumannomyces graminis; [3]) | AVERAGE DEAD IN % (Gaeumannomyces graminis; [4]) | AVERAGE DEAD IN % (Gaeumannomyces graminis; [5]) | AVERAGE DEAD IN % (Gaeumannomyces graminis; [6]) | AVERAGE DEAD IN % (Gaeumannomyces graminis; single compound at 1.25 ppm AI) | AVERAGE DEAD IN % (Gaeumannomyces graminis; single compound at 2.5 ppm AI) | AVERAGE DEAD IN % (Gaeumannomyces graminis; single compound at 5 ppm AI) | AVERAGE DEAD IN % (Gaeumannomyces graminis; single compound at 10 ppm AI) | AVERAGE DEAD IN % (Gaeumannomyces graminis; single compound at 20 ppm AI) | AVERAGE DEAD IN % ([1]; 0.078125 ppm AI) | AVERAGE DEAD IN % ([1]; 0.15625 ppm AI) | AVERAGE DEAD IN % ([1]; 2.5 ppm AI) | AVERAGE DEAD IN % ([1]; 5 ppm AI) | AVERAGE DEAD IN % ([1]; 10 ppm AI) | AVERAGE DEAD IN % ([1]; 20 ppm AI) | AVERAGE DEAD IN % (Septoria tritici; 0.3125 ppm AI, alone) | AVERAGE DEAD IN % (Septoria tritici; 0.625 ppm AI, alone) | AVERAGE DEAD IN % (Septoria tritici; 1.25 ppm AI, alone) | AVERAGE DEAD IN % (Septoria tritici; 2.5 ppm AI, alone) | AVERAGE DEAD IN % (Septoria tritici; 5 ppm AI, alone) | AVERAGE DEAD IN % (Septoria tritici; 10 ppm AI, alone) | AVERAGE DEAD IN % (Septoria tritici; 20 ppm AI, alone) | AVERAGE DEAD IN % A6 (Septoria tritici; A6 alone, 0.0390625 ppm AI) | AVERAGE DEAD IN % A6 (Septoria tritici; A6 alone, 0.078125 ppm AI) | AVERAGE DEAD IN % A6 (Septoria tritici; A6 alone, 0.15625 ppm AI) | AVERAGE DEAD IN % A6 (Septoria tritici; A6 alone, 0.3125 ppm AI) | AVERAGE DEAD IN % A6 (Septoria tritici; A6 alone, 0.625 ppm AI) | AVERAGE DEAD IN % A6 (Septoria tritici; A6 alone, 1.25 ppm AI) | AVERAGE DEAD IN % A6 (Septoria tritici; A6 alone, 2.5 ppm AI) | AVERAGE DEAD IN % A6 (Septoria tritici; A6 alone, 5 ppm AI) | AVERAGE DEAD IN % A6 (Septoria tritici; A6 alone, 10 ppm AI) | AVERAGE DEAD IN % A6 (Septoria tritici; A6 alone, 20 ppm AI) | AVERAGE DEAD IN % ([2]; 0.0390625 PPM AI) | AVERAGE DEAD IN % ([2]; 0.078125 PPM AI) | AVERAGE DEAD IN % ([2]; 0.15625 PPM AI) | AVERAGE DEAD IN % ([2]; 0.3125 PPM AI) | AVERAGE DEAD IN % ([2]; 0.625 PPM AI) | AVERAGE DEAD IN % ([2]; 1.25 PPM AI) | AVERAGE DEAD IN % ([2]; 2.5 PPM AI) | AVERAGE DEAD IN % ([2]; 5 PPM AI) | AVERAGE DEAD IN % ([2]; 10 PPM AI) | AVERAGE DEAD IN % ([2]; 20 PPM AI) | AVERAGE DEAD IN % (Fusarium culmorum; single compound, 2.5 PPM AI, 48 hrs, 24° C.) | AVERAGE DEAD IN % (Fusarium culmorum; single compound, 5 PPM AI, 48 hrs, 24° C.) | AVERAGE DEAD IN % (Fusarium culmorum; single compound, 10 PPM AI, 48 hrs, 24° C.) | AVERAGE DEAD IN % (Fusarium culmorum; single compound, 20 PPM AI, 48 hrs, 24° C.)

CO/C=C(/C(=O)OC)c1ccccc1Oc1cc(Oc2ccccc2C#N)ncn1 [Azoxystrobin, reference compound]
0%: AVERAGE DEAD IN % (Pythium ultimum; [7]) | AVERAGE DEAD IN % (Gaeumannomyces graminis; applied alone, 0.00390625 ppm AI) | AVERAGE DEAD IN % (Gaeumannomyces graminis; applied alone, 0.0078125 ppm AI) | AVERAGE DEAD IN % (Gaeumannomyces graminis; applied alone, 0.015625 ppm AI) | AVERAGE DEAD IN % (Gaeumannomyces graminis; applied alone, 0.03125 ppm AI) | AVERAGE DEAD IN % (Gaeumannomyces graminis; applied alone, 0.0625 ppm AI) | AVERAGE DEAD IN % ([1]; 0.0078125 ppm AI) | AVERAGE DEAD IN % (Septoria tritici; alone, 0.0078125 ppm AI) | AVERAGE DEAD IN % ([2]; 0.0078125 ppm AI) | AVERAGE DEAD IN % ([2]; 0.015625 ppm AI) | AVERAGE DEAD IN % ([2]; 0.0078125 PPM AI) | AVERAGE DEAD IN % (Fusarium culmorum; alone, 0.5 PPM AI)
90% and 50%: AVERAGE DEAD IN % (Gaeumannomyces graminis; single compound at 0.015625 ppm AI)
50% and 70%: AVERAGE DEAD IN % ([2]; 0.03125 PPM AI)
20%: AVERAGE DEAD IN % (Rhizoctonia solani; applied alone, 0.125 ppm AI) | AVERAGE DEAD IN % (Rhizoctonia solani; applied alone, 0.25 ppm AI) | AVERAGE DEAD IN % (Rhizoctonia solani; applied alone, 0.5 ppm AI) | AVERAGE DEAD IN % (Rhizoctonia solani; applied alone, 1 ppm AI) | AVERAGE DEAD IN % (Rhizoctonia solani; applied alone, 2 ppm AI) | AVERAGE DEAD IN % (Rhizoctonia solani; [8]) | AVERAGE DEAD IN % (Rhizoctonia solani; [7]) | AVERAGE DEAD IN % (Rhizoctonia solani; single compound at 0.25 ppm AI) | AVERAGE DEAD IN % (Rhizoctonia solani; single compound at 0.5 ppm AI) | AVERAGE DEAD IN % (Rhizoctonia solani; single compound at 1 ppm AI) | AVERAGE DEAD IN % (Rhizoctonia solani; single compound at 2 ppm AI) | AVERAGE DEAD IN % (Gaeumannomyces graminis; applied alone, 0.125 ppm AI) | AVERAGE DEAD IN % (Gaeumannomyces graminis; applied alone, 0.25 ppm AI) | AVERAGE DEAD IN % (Gaeumannomyces graminis; single compound at 0.00390625 ppm AI) | AVERAGE DEAD IN % ([1]; 0.015625 ppm AI) | AVERAGE DEAD IN % (Septoria tritici; 0.015625 ppm AI, alone) | AVERAGE DEAD IN % Azoxystrobin (Septoria tritici; Azoxystrobin alone, 0.015625 ppm AI) | AVERAGE DEAD IN % (Septoria tritici; alone, 0.015625 ppm AI) | AVERAGE DEAD IN % ([2]; 0.015625 PPM AI) | AVERAGE DEAD IN % (Fusarium culmorum; alone, 1 PPM AI) | AVERAGE DEAD IN % (Fusarium culmorum; alone, 2 PPM AI)
70% and 50%: AVERAGE DEAD IN % ([2]; 0.0625 ppm AI)
100% and 50%: AVERAGE DEAD IN % (Gaeumannomyces graminis; single compound at 0.03125 ppm AI)
50%: AVERAGE DEAD IN % (Gaeumannomyces graminis; applied alone, 0.5 ppm AI) | AVERAGE DEAD IN % (Gaeumannomyces graminis; applied alone, 1 ppm AI) | AVERAGE DEAD IN % (Gaeumannomyces graminis; applied alone, 2 ppm AI) | AVERAGE DEAD IN % (Gaeumannomyces graminis; [8]) | AVERAGE DEAD IN % ([1]; 0.03125 ppm AI) | AVERAGE DEAD IN % (Septoria tritici; 0.03125 ppm AI, alone) | AVERAGE DEAD IN % (Septoria tritici; alone, 0.03125 ppm AI)
90%: AVERAGE DEAD IN % (Gaeumannomyces graminis; single compound at 0.5 ppm AI) | AVERAGE DEAD IN % (Gaeumannomyces graminis; single compound at 1 ppm AI) | AVERAGE DEAD IN % (Gaeumannomyces graminis; single compound at 2 ppm AI) | AVERAGE DEAD IN % (Septoria tritici; 0.125 ppm AI, alone) | AVERAGE DEAD IN % Azoxystrobin (Septoria tritici; Azoxystrobin alone, 0.125 ppm AI) | AVERAGE DEAD IN % (Septoria tritici; alone, 0.125 ppm AI) | AVERAGE DEAD IN % ([2]; 0.125 ppm AI) | AVERAGE DEAD IN % ([2]; 0.0625 PPM AI)
70%: AVERAGE DEAD IN % (Gaeumannomyces graminis; [7]) | AVERAGE DEAD IN % (Gaeumannomyces graminis; single compound at 0.25 ppm AI) | AVERAGE DEAD IN % (Septoria tritici; 0.0625 ppm AI, alone) | AVERAGE DEAD IN % Azoxystrobin (Septoria tritici; Azoxystrobin alone, 0.0625 ppm AI) | AVERAGE DEAD IN % (Septoria tritici; alone, 0.0625 ppm AI)
